Data as given in PubChem BioAssay (NCI).
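48-hour exposure; five concentrations; linearly interpolated endpoints. TGI: total growth inhibition.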

Legend:
Experiment in all cases: growth of human tumour cells (NCI), 48 h
ACHN renal = system: ACHN renal
HCC-2998 colon = system: HCC-2998 colon
MDA-N = system: MDA-N
SF-295 CNS = system: SF-295 CNS
U251 CNS = system: U251 CNS
SN12C renal = system: SN12C renal
HT29 colon = system: HT29 colon
CCRF-CEM leukemia = system: CCRF-CEM leukemia
NCI-H460 lung = system: NCI-H460 lung
IGROV1 ovarian = system: IGROV1 ovarian
MDA-MB-435 = system: MDA-MB-435
KM12 colon = system: KM12 colon
CAKI-1 renal = system: CAKI-1 renal
OVCAR-8 ovarian = system: OVCAR-8 ovarian
NCI-H522 lung = system: NCI-H522 lung
SK-MEL-2 melanoma = system: SK-MEL-2 melanoma
HS 578T breast = system: HS 578T breast
HOP-62 NSCLC = system: HOP-62 NSCLC
HOP-92 NSCLC = system: HOP-92 NSCLC
SK-OV-3 ovarian = system: SK-OV-3 ovarian
SNB-75 CNS = system: SNB-75 CNS
OVCAR-3 ovarian = system: OVCAR-3 ovarian
UACC-257 melanoma = system: UACC-257 melanoma
HCT-116 colon = system: HCT-116 colon
HL-60(TB) leukemia = system: HL-60(TB) leukemia
NCI/ADR-RES ovarian = system: NCI/ADR-RES ovarian
UACC-62 melanoma = system: UACC-62 melanoma
M14 melanoma = system: M14 melanoma
PC-3 prostate = system: PC-3 prostate
RXF 393 renal = system: RXF 393 renal
EKVX NSCLC = system: EKVX NSCLC
UO-31 renal = system: UO-31 renal
MDA-MB-231 breast = system: MDA-MB-231 breast
SK-MEL-28 melanoma = system: SK-MEL-28 melanoma
MCF7 breast = system: MCF7 breast
SK-MEL-5 melanoma = system: SK-MEL-5 melanoma
COLO 205 colon = system: COLO 205 colon
SNB-19 CNS = system: SNB-19 CNS
SF-539 CNS = system: SF-539 CNS
LOX IMVI melanoma = system: LOX IMVI melanoma
NCI-H23 lung = system: NCI-H23 lung
OVCAR-4 ovarian = system: OVCAR-4 ovarian
BT-549 breast = system: BT-549 breast
SW-620 colon = system: SW-620 colon
OVCAR-5 ovarian = system: OVCAR-5 ovarian
TK-10 renal = system: TK-10 renal
MOLT-4 leukemia = system: MOLT-4 leukemia
786-0 renal = system: 786-0 renal
HCT-15 colon = system: HCT-15 colon
A549 NSCLC = system: A549 NSCLC
NCI-H226 lung = system: NCI-H226 lung
SF-268 CNS = system: SF-268 CNS
DU-145 prostate = system: DU-145 prostate
SR leukemia = system: SR leukemia
MALME-3M melanoma = system: MALME-3M melanoma
K-562 leukemia = system: K-562 leukemia

## COc1cccc(CC2C(=O)N=C(NC(C)=O)N2C)c1OC(C)=O (stereo unspecified)
ACHN renal
  TGI: > 100 µM
HCC-2998 colon
  TGI: > 100 µM
MDA-N
  TGI: > 100 µM
SF-295 CNS
  TGI: > 100 µM
U251 CNS
  TGI: > 100 µM
SN12C renal
  TGI: > 100 µM
HT29 colon
  TGI: > 100 µM
CCRF-CEM leukemia
  TGI: > 100 µM
NCI-H460 lung
  TGI: > 100 µM
IGROV1 ovarian
  TGI: > 100 µM
MDA-MB-435
  TGI: > 100 µM
KM12 colon
  TGI: > 100 µM
CAKI-1 renal
  TGI: > 100 µM
OVCAR-8 ovarian
  TGI: > 100 µM
NCI-H522 lung
  TGI: > 100 µM
SK-MEL-2 melanoma
  TGI: > 100 µM
HS 578T breast
  TGI: > 100 µM
HOP-62 NSCLC
  TGI: > 100 µM
HOP-92 NSCLC
  TGI: > 100 µM
SK-OV-3 ovarian
  TGI: > 100 µM
SNB-75 CNS
  TGI: > 100 µM
OVCAR-3 ovarian
  TGI: > 100 µM
UACC-257 melanoma
  TGI: > 100 µM
HCT-116 colon
  TGI: > 100 µM
HL-60(TB) leukemia
  TGI: > 100 µM
NCI/ADR-RES ovarian
  TGI: > 100 µM
UACC-62 melanoma
  TGI: > 100 µM
M14 melanoma
  TGI: > 100 µM
PC-3 prostate
  TGI: > 100 µM
RXF 393 renal
  TGI: > 100 µM
EKVX NSCLC
  TGI: > 100 µM
UO-31 renal
  TGI: > 100 µM
MDA-MB-231 breast
  TGI: > 100 µM
SK-MEL-28 melanoma
  TGI: > 100 µM
MCF7 breast
  TGI: > 100 µM
SK-MEL-5 melanoma
  TGI: > 100 µM
COLO 205 colon
  TGI: > 100 µM
SNB-19 CNS
  TGI: > 100 µM
SF-539 CNS
  TGI: > 100 µM
LOX IMVI melanoma
  TGI: > 100 µM
NCI-H23 lung
  TGI: > 100 µM
OVCAR-4 ovarian
  TGI: > 100 µM
BT-549 breast
  TGI: > 100 µM
SW-620 colon
  TGI: > 100 µM
OVCAR-5 ovarian
  TGI: > 100 µM
TK-10 renal
  TGI: > 100 µM
MOLT-4 leukemia
  TGI: > 100 µM
786-0 renal
  TGI: > 100 µM
HCT-15 colon
  TGI: > 100 µM
A549 NSCLC
  TGI: > 100 µM
NCI-H226 lung
  TGI: > 100 µM
SF-268 CNS
  TGI: > 100 µM
DU-145 prostate
  TGI: > 100 µM

## COC(=O)Cc1c(C(=O)CC(C)(C)n2cnc(CCN3C(=O)CCC3=O)c2)[nH]c2ccccc12
ACHN renal
  TGI: > 100 µM
MDA-N
  TGI: > 100 µM
SR leukemia
  TGI: > 100 µM
SF-295 CNS
  TGI: > 100 µM
U251 CNS
  TGI: > 100 µM
SN12C renal
  TGI: > 100 µM
HT29 colon
  TGI: > 100 µM
CCRF-CEM leukemia
  TGI: > 100 µM
NCI-H460 lung
  TGI: > 100 µM
IGROV1 ovarian
  TGI: > 100 µM
MDA-MB-435
  TGI: > 100 µM
KM12 colon
  TGI: > 100 µM
CAKI-1 renal
  TGI: > 100 µM
MALME-3M melanoma
  TGI: > 100 µM
OVCAR-8 ovarian
  TGI: > 100 µM
NCI-H522 lung
  TGI: > 100 µM
SK-MEL-2 melanoma
  TGI: > 100 µM
HS 578T breast
  TGI: > 100 µM
HOP-92 NSCLC
  TGI: > 100 µM
SK-OV-3 ovarian
  TGI: > 100 µM
SNB-75 CNS
  TGI: > 100 µM
OVCAR-3 ovarian
  TGI: > 100 µM
UACC-257 melanoma
  TGI: > 100 µM
HCT-116 colon
  TGI: > 100 µM
NCI/ADR-RES ovarian
  TGI: > 100 µM
UACC-62 melanoma
  TGI: > 100 µM
M14 melanoma
  TGI: > 100 µM
PC-3 prostate
  TGI: > 100 µM
RXF 393 renal
  TGI: 96 µM
EKVX NSCLC
  TGI: > 100 µM
UO-31 renal
  TGI: > 100 µM
MDA-MB-231 breast
  TGI: > 100 µM
SK-MEL-28 melanoma
  TGI: > 100 µM
MCF7 breast
  TGI: > 100 µM
SK-MEL-5 melanoma
  TGI: > 100 µM
COLO 205 colon
  TGI: > 100 µM
SNB-19 CNS
  TGI: > 100 µM
SF-539 CNS
  TGI: > 100 µM
LOX IMVI melanoma
  TGI: > 100 µM
NCI-H23 lung
  TGI: > 100 µM
OVCAR-4 ovarian
  TGI: > 100 µM
BT-549 breast
  TGI: > 100 µM
SW-620 colon
  TGI: > 100 µM
K-562 leukemia
  TGI: > 100 µM
OVCAR-5 ovarian
  TGI: > 100 µM
TK-10 renal
  TGI: > 100 µM
MOLT-4 leukemia
  TGI: > 100 µM
786-0 renal
  TGI: > 100 µM
HCT-15 colon
  TGI: > 100 µM
A549 NSCLC
  TGI: > 100 µM
NCI-H226 lung
  TGI: > 100 µM
SF-268 CNS
  TGI: > 100 µM
DU-145 prostate
  TGI: > 100 µM
